Measured values published in patent publication US10676446B2, “Bicyclic quinazolinone derivatives” (Hoffmann-La Roche Inc., priority 2015, dated 2020).

Biological target: human ATX (autotaxin, ENPP2), His-tagged (Homo sapiens (Human), UniProt Q13822)
Experiment: Human ATX enzyme inhibition assay (fluorescence quenching, MR121 substrate)
Format: biochemical
Settings: 30 nM ATX, 1 μM MR121 substrate, 30° C., pH 8.0
Description: Human ATX Enzyme Inhibition Assay
ATX inhibition was measured by a fluorescence quenching assay using a specifically labeled substrate analogue (MR121 substrate). To obtain this MR121 substrate, BOC and TBS protected 6-amino-hexanoic acid (R)-3-({2-[3-(2-{2-[2-(2-amino-ethoxy)-ethoxy]-ethoxy}-ethoxy)-propionylamino]-ethoxy}-hydroxy-phosphoryloxy)-2-hydroxy-propyl ester (Ferguson et al., Org. Lett. 2006, 8, 2023) was labeled with MR121 fluorophore [CAS RN 185308-24-1], 1-(3-carboxypropyl)-11-ethyl-1,2,3,4,8,9,10,11-octahydro-dipyrido[3,2-b:2′,3′-i]phenoxazin-13-ium) on the free amine of the ethanolamine side and then, after deprotection, subsequently with tryptophan on the side of the aminohexanoic acid.
Assay working solutions were made as follows:
Assay buffer (50 mM Tris-HCl, 140 mM NaCl, 5 mM KCl, 1 mM CaCl2, 1 mM MgCl2, 0.01% Triton-X-100, pH 8.0;
ATX solution: ATX (human His-tagged) stock solution (1.08 mg/mL in 20 mM bicine, pH 8.5, 0.15 M NaCl, 10% glycerol, 0.3% CHAPS, 0.02% NaN3), diluted to 1.4-2.5× final concentration in assay buffer;
MR121 substrate solution: MR121 substrate stock solution (800 μM MR121 substrate in DMSO), diluted to 2-5× final concentration in assay buffer.
Test compounds (10 mM stock in DMSO, 8 μL) were obtained in 384 well sample plates (Corning Costar #3655) and diluted with 8 μL DMSO. Row-wise serial dilutions were made by transferring 8 μL cpd solution to the next row up to row O. The compound and control solutions were mixed five times and 2 μL were transferred to 384 well assay plates (Corning Costar #3702). Then, 15 μL of 41.7 nM ATX solution was added (30 nM final concentration), mixed five times and then incubated for 15 minutes at 30° C. 10 μL of MR121 substrate solution was added (1 μM final concentration), mixed 30 times and then incubated for 15 minutes at 30° C.

Compound | IC50 [nM]
COCCC(NC(=O)Cn1cnc2ccc(N3CCN(C(C)=O)CC3)cc2c1=O)c1ccc(Cl)c(Cl)c1 (stereo not shown) [Example 153, 2-[6-(4-Acetylpiperazin-1-yl)-4-oxoquinazolin-3-yl]-N-[1-(3,4-dichlorophenyl)-3-methoxypropyl]acetamide] | 36
CC(=O)N1CCN(c2ccc3ncn(CC(=O)NCc4ccc(C#N)cc4Cl)c(=O)c3c2)CC1 [Example 29] | 175
CC(=O)N1CCC(c2ccc3ncn(CC(=O)NCc4ccc(C(F)(F)F)cc4)c(=O)c3c2)CC1 [Example 123] | 67
CCN(Cc1ccc(Cl)c(Cl)c1)C(=O)Cn1cnc2ccc(N3CCN(C(C)=O)CC3)cc2c1=O [Example 116, 2-[6-(4-Acetylpiperazin-1-yl)-4-oxoquinazolin-3-yl]-N-[(3,4-dichlorophenyl)methyl]-N-ethylacetamide] | 16
O=C(Cn1cnc2ccc(N3CCN(Cc4ncc[nH]4)CC3)cc2c1=O)NCc1ccc(Cl)c(Cl)c1 [Example 100] | 204
CS(=O)(=O)N1CCN(c2ccc3ncn(CC(=O)NCc4ccc(Cl)c(Cl)c4)c(=O)c3c2)CC1 [Example 88, N-[(3,4-Dichlorophenyl)methyl]-2-[6-(4-methylsulfonylpiperazin-1-yl)-4-oxoquinazolin-3-yl]acetamide] | 88
COCC(=O)N1CCC(c2ccc3ncn(CC(=O)N(C)Cc4ccc(C#N)c(Cl)c4)c(=O)c3c2)CC1 [Example 132] | 12
COCC(=O)N1CCC(c2ccc3ncn(CC(=O)N(C)Cc4ccc(Cl)c(Cl)c4)c(=O)c3c2)CC1 [Example 171] | 3
CC(C)CC(=O)N1CCN(c2ccc3ncn(CC(=O)NCc4ccc(Cl)c(Cl)c4)c(=O)c3c2)CC1 [Example 59, N-[(3,4-Dichlorophenyl)methyl]-2-[6-[4-(3-methylbutanoyl)piperazin-1-yl]-4-oxoquinazolin-3-yl]acetamide] | 70
CC(=O)N1CCN(c2ccc3ncn(CC(=O)NC(CC(=O)N(C)C)c4ccc(C(F)(F)F)cc4)c(=O)c3c2)CC1 (stereo not shown) [Example 5] | 121
CC(=O)N1CCN(c2ccc3ncn(CC(=O)N(C)Cc4cc(Cl)nc(Cl)c4)c(=O)c3c2)CC1 [Example 46] | 184
CC(=O)N1CCN(c2ccc3ncn(CC(=O)NCc4ccc(S(C)(=O)=O)c(C)c4)c(=O)c3c2)CC1 [Example 40] | 1560
O=C(Cn1cnc2ccc(N3CCN(C(=O)C4CCCC4)CC3)cc2c1=O)NCc1ccc(Cl)c(Cl)c1 [Example 64] | 4
CC(=O)N1CCN(c2ccc3ncn(CC(=O)NCc4ccc(C#N)c(F)c4)c(=O)c3c2)CC1 [Example 28, 2-[6-(4-Acetylpiperazin-1-yl)-4-oxoquinazolin-3-yl]-N-[(4-cyano-3-fluorophenyl)methyl]acetamide] | 27
CC(=O)N1CCC(c2ccc3ncn(CC(=O)N(C)Cc4ccc(Cl)c(C#N)c4)c(=O)c3c2)CC1 [Example 126] | 12
CNC(=O)C[C@@H](NC(=O)Cn1cnc2ccc(N3CCN(C(C)=O)CC3)cc2c1=O)c1ccc([N+](=O)[O-])cc1 [Example 9, (3R)-3-[[2-[6-(4-Acetylpiperazin-1-yl)-4-oxoquinazolin-3-yl]acetyl]amino]-N-methyl-3-(4-nitrophenyl)propanamide] | 54
Cn1cccc1CN1CCN(c2ccc3ncn(CC(=O)NCc4ccc(Cl)c(Cl)c4)c(=O)c3c2)CC1 [Example 99] | 31
CC(=O)N1CCN(c2ccc3ncn(C4(C(=O)NCc5ccc(Cl)c(Cl)c5)CC4)c(=O)c3c2)CC1 [Example 150, 1-[6-(4-Acetylpiperazin-1-yl)-4-oxoquinazolin-3-yl]-N-[(3,4-dichlorophenyl)methyl]cyclopropane-1-carboxamide] | 91
CCCCC(=O)N1CCN(c2ccc3ncn(CC(=O)NCc4ccc(Cl)c(Cl)c4)c(=O)c3c2)CC1 [Example 60] | 10
CC(=O)N1CCCN(c2ccc3ncn(CC(=O)NCc4ccc(C(F)(F)F)cc4)c(=O)c3c2)CC1 [Example 119] | 649
CC(=O)N1CCN(c2ccc3ncn(CC(=O)NCc4ccc(Cl)c(OC(F)(F)F)c4)c(=O)c3c2)CC1 [Example 38] | 4
CN(Cc1ccc(Cl)c(Cl)c1)C(=O)Cn1cnc2ccc(N3CCN(CC(=O)Nc4ccccc4)CC3)cc2c1=O [Example 112] | 71
Cc1nc(C)c(CN2CCN(c3ccc4ncn(CC(=O)NCc5ccc(Cl)c(Cl)c5)c(=O)c4c3)CC2)o1 [Example 103] | 288

Compound | IC50 [nM]
CC(=O)N1CCN(c2ccc3ncn(CC(=O)NCc4ccc(Cl)cn4)c(=O)c3c2)CC1 [Example 12] | 148
CC(=O)N1CCN(c2ccc3ncn(CC(=O)NCc4ccc(Cl)c(Cl)c4)c(=O)c3c2)CC1 [Example 22] | 91
CC(=O)N1CC2CC1CC2c1ccc2ncn(CC(=O)NCc3ccc(Cl)c(Cl)c3)c(=O)c2c1 (stereo not shown) [Example 147, 2-[6-[2-Acetyl-2-azabicyclo[2.2.1]heptan-5-yl]-4-oxoquinazolin-3-yl]-N-[(3,4-dichlorophenyl)methyl]acetamide] | 140
CC(C)NC(=O)CN1CCN(c2ccc3ncn(CC(=O)N(C)Cc4ccc(Cl)c(Cl)c4)c(=O)c3c2)CC1 [Example 109] | 35
CN(Cc1ccc(Cl)c(Cl)c1)C(=O)Cn1cnc2ccc(C3CCN(C(=O)C4(C)CCCO4)CC3)cc2c1=O (stereo not shown) [Example 181] | 8
CNC(=O)CN1CCN(c2ccc3ncn(CC(=O)N(C)Cc4ccc(Cl)c(Cl)c4)c(=O)c3c2)CC1 [Example 107, N-[(3,4-Dichlorophenyl)methyl]-N-methyl-2-[6-[4-[2-(methylamino)-2-oxoethyl]piperazin-1-yl]-4-oxoquinazolin-3-yl]acetamide] | 67
CN(Cc1ccc(C#N)c(Cl)c1)C(=O)Cn1cnc2ccc(C3CCN(CC4CCOC4)CC3)cc2c1=O (stereo not shown) [Example 143, N-[(3-Chloro-4-cyanophenyl)methyl]-N-methyl-2-[4-oxo-6-[1-(oxolan-3-ylmethyl)piperidin-4-yl]quinazolin-3-yl]acetamide] | 46
CC(C)C(=O)N1CCN(c2ccc3ncn(CC(=O)N(C)Cc4ccc(Cl)c(Cl)c4)c(=O)c3c2)CC1 [Example 69] | 3
CC(=O)N1CCN(c2ccc3ncn(CC(=O)NC(CC(=O)Nc4ccccc4)c4ccc(Cl)cc4)c(=O)c3c2)CC1 (stereo not shown) [Example 3] | 198
CN(Cc1ccc(C#N)c(Cl)c1)C(=O)Cn1cnc2ccc(C3CCN(C(=O)C4CCC4)CC3)cc2c1=O [Example 137] | 2
N#Cc1ccc(CNC(=O)Cn2cnc3ccc(N4CCN(C(=O)C5COC5)CC4)cc3c2=O)c(Cl)c1 [Example 113, N-[(2-Chloro-4-cyanophenyl)methyl]-2-[6-[4-(oxetane-3-carbonyl)piperazin-1-yl]-4-oxoquinazolin-3-yl]acetamide] | 202
CC(=O)N1CCN(c2ccc3ncn(CC(=O)NCc4ccc(C)c(Cl)c4)c(=O)c3c2)CC1 [Example 42] | 140
CC(C)[C@H](O)C(=O)N1CCC(c2ccc3ncn(CC(=O)N(C)Cc4ccc(Cl)c(Cl)c4)c(=O)c3c2)CC1 [Example 170] | 14
CC(=O)N1CCN(c2ccc3ncn(CC(=O)N(C)Cc4ccc(Cl)c(Cl)c4)c(=O)c3c2)CC1 [Example 44] | 17
C[C@@H](O)C(=O)N1CCC(c2ccc3ncn(CC(=O)N(C)Cc4ccc(C#N)c(Cl)c4)c(=O)c3c2)CC1 [Example 156] | 561
CNC(=O)C[C@@H](NC(=O)Cn1cnc2ccc(N3CCN(C(C)=O)CC3)cc2c1=O)c1ccc(Cl)cc1 [Example 1, (3R)-3-[[2-[6-(4-Acetylpiperazin-1-yl)-4-oxoquinazolin-3-yl]acetyl]amino]-3-(4-chlorophenyl)-N-methylpropanamide] | 269
CC(=O)N1CCN(c2ccc3ncn(CC(=O)NCc4ccc(C#N)c(Cl)c4)c(=O)c3c2)CC1 [Example 25] | 16
CC(=O)N1CCC(c2ccc3ncn(CC(=O)NCc4ccc(Cl)c(Cl)c4)c(=O)c3c2)CC1 [Example 122] | 12
CN(Cc1ccc(C#N)c(Cl)c1)C(=O)Cn1cnc2ccc(C3CCN(C(=O)C4COC4)CC3)cc2c1=O [Example 142] | 60
CC(=O)N1CCN(c2ccc3ncn(CC(=O)NCc4ccc([N+](=O)[O-])cc4)c(=O)c3c2)CC1 [Example 21] | 52
COc1cc(C#N)ccc1CNC(=O)Cn1cnc2ccc(N3CCN(C(C)=O)CC3)cc2c1=O [Example 32] | 89
O=C(Cn1cnc2ccc(N3CCN(C(=O)NC4CCCC4)CC3)cc2c1=O)NCc1ccc(Cl)c(Cl)c1 [Example 84] | 2
CN(Cc1ccc(C#N)c(Cl)c1)C(=O)Cn1cnc2ccc(C3CCN(C(=O)CC#N)CC3)cc2c1=O [Example 154, N-[(3-Chloro-4-cyanophenyl)methyl]-2-[6-[1-(2-cyanoacetyl)piperidin-4-yl]-4-oxoquinazolin-3-yl]-N-methylacetamide] | 2
